Measured values published in paper PMC11397024, “Strategic Fluorination to Achieve a Potent, Selective, Metabolically Stable, and Orally Bioavailable Inhibitor of CSNK2” (Molecules, 2024).

Legend:
CLK1 = target: T1, CLK1 (Homo sapiens, UniProt P49759); test: NanoBRET dose-response CLK1; assay type: cell-based
T1 construct: purchased Promega (NanoBRET Target Engagement K192 Kinase Selectivity System)

PHKG1 = target: T2, PHKG1 (Homo sapiens, UniProt Q16816); test: NanoBRET dose-response PHKG1; assay type: cell-based; details: highest concentration tested 30 μM
T2 construct: purchased Promega (NanoBRET Target Engagement K192 Kinase Selectivity System)

[1] = Hepatocyte stability, mouse; assay type: in vitro ADME; details: male, CD-1, cryopreserved hepatocytes, over 2 h
Description: Human cryopreserved hepatocytes were supplied by BioIVT (lot QZW, 10 pooled donors, Westbury, NY, USA). Mouse cryopreserved hepatocytes were supplied by BioIVT (lot ZPG, pooled male CD-1). Vials of cryopreserved hepatocytes were removed from storage and thawed in a 37 °C water bath with gentle shaking, and then the contents were poured into a 50 mL thawing medium conical tube. Vials were centrifuged at 100× g for 10 min at room temperature. The thawing medium was aspirated, and hepatocytes were resuspended with a serum-free incubation medium to yield ~1.5 × 10^6 cells/mL. Cell viability and density were counted using AO/PI fluorescence staining, and then cells were diluted with a serum-free incubation medium to a working cell density of 0.5 × 10^6 viable cells/mL. Aliquots of 198 μL of hepatocytes were dispensed into each well of a 96-well noncoated plate. The plate was placed in an incubator for approximately 10 min. […] Peak areas were determined from extracted ion chromatograms, and the slope value, k, was determined by linear regression of the natural logarithm of the remaining percentage of the parent drug vs. incubation time curve. The intrinsic clearance (CLint in μL/min/10^6 cells) was calculated using the relationship CLint = kV/N, where V is the incubation volume (0.2 mL) and N is the number of hepatocytes per well (0.1 × 10^6 cells). […]

192 human kinases = test: NanoBRET K192 panel, whole panel; assay type: cell-based; details: six off-target kinases, dose-response experiments
Description: The K192 selectivity assay was run according to the Draft Promega technical manual, NanoBRET^TM Target Engagement K192 Kinase Selectivity System. Reagents were supplied by Promega (Promega NP 4101). For the assay, DNA from the prepared kinase vector panel plates A and B were mixed with Fugene in 96-well plates (Corning 3917) and incubated at room temperature for 30 min. The NanoLuc® Low control vector pNL1.1.CMV [Nluc/CMV] Vector (Cat.# N1091) and the transfection control vector NanoLuc®-HIPK2 Fusion Vector (Cat.# NV3221) were used as controls.
HEK293 cells were grown to 75–95% confluency in DMEM (Gibco 11995-065) supplemented with FBS (Avantor 97068-085) at 37 °C in 5% RH. […]
On day two of the assay, 5 μL of 20X K10 tracer was prepared and added at concentrations recommended by Promega. […] After 2–3 min, the plate was shaken at 300 RPM for 10 s, and the donor emission wavelength (450 nm) and acceptor emission wavelength (610 nm) were measured using the Glomax® Discover System.
As a quality check, the donor signal-to-background ratio was calculated for each individual kinase by dividing the mean donor signal for each kinase by the mean donor signal for the signal-to-background control wells. Fractional occupancy of the test drug for each kinase was determined using the following formula:Occupancy (%) = [1 − (Sample − Bottom)/(Top − Bottom)] × 100 where

T2 sequence (Q16816 whole entry): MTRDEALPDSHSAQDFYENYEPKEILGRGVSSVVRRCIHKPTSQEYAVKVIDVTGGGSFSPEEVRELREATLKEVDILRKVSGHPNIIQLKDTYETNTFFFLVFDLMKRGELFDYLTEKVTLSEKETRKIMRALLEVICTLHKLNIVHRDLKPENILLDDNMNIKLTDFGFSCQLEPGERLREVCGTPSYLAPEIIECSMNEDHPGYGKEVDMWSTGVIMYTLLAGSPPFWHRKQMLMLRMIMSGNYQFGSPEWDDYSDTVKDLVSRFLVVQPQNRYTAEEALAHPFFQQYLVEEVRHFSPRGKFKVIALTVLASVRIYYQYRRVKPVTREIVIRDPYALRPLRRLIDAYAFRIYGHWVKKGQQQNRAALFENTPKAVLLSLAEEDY
T1 sequence (P49759 whole entry): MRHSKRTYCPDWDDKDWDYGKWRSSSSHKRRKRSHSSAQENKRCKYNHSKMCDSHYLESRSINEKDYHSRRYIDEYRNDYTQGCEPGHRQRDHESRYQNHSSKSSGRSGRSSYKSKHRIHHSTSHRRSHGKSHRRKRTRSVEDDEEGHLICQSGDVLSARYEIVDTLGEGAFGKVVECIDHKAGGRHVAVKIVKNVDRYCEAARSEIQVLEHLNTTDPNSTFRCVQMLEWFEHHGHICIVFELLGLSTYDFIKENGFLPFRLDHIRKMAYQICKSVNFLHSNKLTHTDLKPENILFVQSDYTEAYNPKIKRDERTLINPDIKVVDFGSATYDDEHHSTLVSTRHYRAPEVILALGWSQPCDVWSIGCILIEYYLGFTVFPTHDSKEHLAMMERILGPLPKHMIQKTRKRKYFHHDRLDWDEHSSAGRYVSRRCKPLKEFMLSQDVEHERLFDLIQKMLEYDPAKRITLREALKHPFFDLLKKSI

CCC(=O)Nc1cc(Nc2cc(NC3CC3)n3ncc(C#N)c3n2)c(F)cc1N1CCC[C@H](NC)C1 [Compound 2, (S)-N-(5-((3-cyano-7-(cyclopropylamino)pyrazolo[1,5-a]pyrimidin-5-yl)amino)-4-fluoro-2-(3-(methylamino)piperidin-1-yl)phenyl)propionamide]
IC50 (CLK1): 29 µM
IC50 (PHKG1): > 30 µM
CLint scaled at 1 μM [1]: 180 mL/min/kg
selectivity compared to CSNK2A1 and CSNK2A2 (192 human kinases): ≥ 1000 fold
